Measurements taken from US8198327B2, “Fatty acid amides and uses thereof” (Yissum Research Development Company of the Hebrew …, priority 2008, dated 2012).
Entries after “also recorded” stand apart in the source; their conditions may differ. Where two headings read alike, the source gives them in different places.

Key:
[1] = test system: MC3T3 E1 osteoblastic cells; test: MC3T3 E1 osteoblastic cell assay (cell number / proliferation); type: cell-based
Source text: FIGS. 1(A)-1(F) are graphical depictions of screening of fatty acid derivatives identified in brain for proliferative activity in MC3T3 E1 osteoblastic cells. (A), oleoyl-serine (HU-639); (B), palmitoyl-serine; (C), arachidonoyl-serine (HU-362); (D), arachidonoyl-ethanolamide; (E), palmitoyl-ethanolamide; (F), 2-arachidonoylglycerol. Data are mean±SE obtained in 3 culture wells per condition.
FIG. 9 represents methylated oleoyl-serine (HU-639) derivatives α-methyl oleoyl serine (HU-671) and 2-methyl-oleoyl serine (HU-681)) stimulation of MC3T3 E1 osteoblastic cell number at concentration 10- to 100-fold lower than HU-639. Data are mean±SE obtained in 3 culture wells per condition. *, ANOVA, p<0.05 vs. ligand-free control (Cntl).
(§1) Several lipid compounds present in the brain stimulated the proliferation of MC3T3 E1 osteoblast-like cells in vitro (FIG. 1). […] The HU-639 mitogenic effect was confirmed measuring BrdU incorporation in the MC3T3 E1 cells and in primary calvarial osteoblasts (FIG. 4A). […] Typical of some osteoblast mitogenic agents [Miguel et al, 2005], the dose-response curves representing oleoyl-serine (HU-639) activity in culture are bell shaped, with the peak stimulation of cell number followed by reversal of the effect to baseline levels (FIGS. 4A, 4B).
The oleoyl-serine derivatives α-methyl oleoyl serine (HU-671) and 2-methyl-oleoyl serine (HU-681) were tested in the MC3T3 E1 osteoblastic cell assay, HU-671 and HU-681 stimulated cell number with respective peak effects at 10^−12 M and 10^−13 M as compared to 10^−11 M of the parent HU-639 molecule (FIG. 9).

Erk1/2 phosphorylation [2] = test: Erk1/2 phosphorylation in osteoblasts; type: cell-based
Source text: (§2) FIGS. 4(A)-4(E) represents signaling of oleoyl-serine (HU-639) in osteoblasts. *, ANOVA, p<0.05 vs. oleoyl-serine (HU-639)-free control (Cntl).
as §1

[3] = test system: ovariectomized (OVX) mice; test: Ovariectomy (OVX) mouse model of osteoporosis, microCT and histomorphometry of distal femoral metaphysis; type: in vivo
Experimental: FIG. 6 oleoyl-serine (HU-639) rescues ovariectomy (OVX)-induced trabecular bone loss in mouse distal femoral metaphysis. Mice were OVXed or sham-OVXed and left untreated for 6 weeks to allow for bone loss. Thereafter, OVXed mice were treated by i.p. administration of oleoyl-serine (HU-639), 5 mg/Kg/day for 6 weeks and subjected to qualitative and quantitative analysis by microcomputed tomography. BV/TV, trabecular bone volume density. VEH, ethanol/emulphor/saline solvent. Data are mean±SE obtained in 6-8 mice per condition.
VEH, ethanol/emulphore/saline solvent. Histomorphometric analysis based on vital labeling of newly formed bone by calcein. Data are mean±SE obtained in 6-8 mice per condition. *, ANOVA, p<0.05 vs. Sham-OVX.
VEH, ethanol/emulphore/saline solvent. Osteoclast counts were based on osteoclast specific staining with tartrate-resistant acid phosphatase. Data are mean±SE obtained in 6-8 mice per condition. *, ANOVA, p<0.05 vs. Sham-OVX and OVX/VEH.
Based on the in vitro screening, the in vivo skeletal activity of oleoyl-serine (HU-639) in an ovariectomy (removal of ovaries; OVX) mouse model, the most widely used animal model for osteoporosis, was analyzed. Using this experimental system for testing bone anabolic activity, OVXed mice are left untreated to allow for bone loss to occur, followed by a treatment period intended for reversal of the bone loss [Alexander et al, 2001]. […] To further elucidate the process leading to the oleoyl-serine (HU-639) rescue of OVX-induced bone loss, the same mice were subjected to an analysis of bone formation and resorption by computerized histomorphometry (HM).

MC3T3 E1 cells = test: BrdU incorporation in MC3T3 E1 cells; type: cell-based
Source text: as §1

osteoclasts = test: Osteoclast survival in ex vivo culture of bone marrow-derived monocytes with M-CSF and RANKL; type: cell-based, mouse; conditions: 4 days with M-CSF and RANKL
Source text: (§3) (A), number of intact osteoclasts with the use of oleoyl-serine (HU-639); (B), number of apoptotic osteoclasts; (C), representative photomicrograph of culture oleoyl-serine (HU-639)-free control culture; (D), representative photomicrograph of culture treated with 10^−10 M oleoyl-serine (HU-639); (E), immunoblot analysis of Erk1/2 phosphorylation in preosteoclast-like RAW 264.7 cells. (F), RT-PCR analysis of RANKL and OPG expression in bone marrow-derived primary stromal cells. Quantitative data are mean±SE obtained in 3 culture wells per condition. Arrows indicate, apoptotic osteoclasts; *, ANOVA, p<0.05 vs. oleoyl-serine (HU-639)-free control (Cntl).
(§4) This inhibition is likely to have a restraining effect on osteoclast survival [Kim et al, 2009].

RANKL expression = test: RT-PCR analysis of RANKL expression in bone marrow-derived primary stromal cells; type: cell-based
Source text: as §3, §4

[4] = test system: primary calvarial osteoblasts; test: BrdU incorporation in primary calvarial osteoblasts; type: cell-based
Source text: as §1

Erk1/2 phosphorylation [5] = test: Immunoblot analysis of Erk1/2 phosphorylation in preosteoclast-like RAW 264.7 cells; type: cell-based
Source text: as §3, §4

osteoblasts = test: Blockade of oleoyl-serine (HU-639) mitogenic activity in osteoblasts; type: cell-based; conditions: MEK inhibitor, inhibition of Erk1/2 phosphorylation
Source text: as §2, §1

SMILES: CCCCCCCC/C=C\CCCCCCCC(=O)NC(C)(CO)C(=O)O (racemic) [HU-671, N-oleoly α-methyl-DL-serine]
- concentration of peak effect on cell number [1]: 10^−12 M

SMILES: CCCCCCCC/C=C\CCCCCCCC(=O)N[C@@H](CO)C(=O)O [HU-639, N-Oleoyl L-Serine]
- Erk1/2 phosphorylation (Erk1/2 phosphorylation [2]): stimulates Erk1/2 phosphorylation
- reversal of bone loss compared with parathyroid hormone (1-34) ([3]; comparison with literature [Alexander et al, 2001]): greater than the reversal of bone volumetric density by parathyroid hormone (1-34)
- bone resorption, osteoclast counts (TRAP staining) ([3]; distal femoral metaphyseal trabecular bone): decreasing of osteoclast number; also recorded: markedly inhibited bone resorption
- mineral appositional rate (MAR) ([3]; histomorphometry, calcein labeling): stimulated mineral appositional rate
- overall trabecular bone formation ([3]; histomorphometry, compared to sham- and vehicle-treated OVXed controls): stimulation of trabecular bone formation; also recorded: stimulation of overall bone formation
- difference in trabecular bone volume density (BV/TV) vs controls ([3]; vs vehicle treated OVXed controls (so in the source)): statistically insignificant
- shape of dose-response curves in culture (MC3T3 E1 cells; FIGS. 4A, 4B, peak stimulation of cell number followed by reversal to baseline): bell shaped
- mitogenic effect by BrdU incorporation (MC3T3 E1 cells; MC3T3 E1 cells): confirmed
- osteoclast apoptosis (osteoclasts): stimulating osteoclast apoptosis
- osteoclast survival (number of intact osteoclasts) (osteoclasts): inhibition of osteoclast survival; also recorded: inhibits osteoclast survival
- RANKL expression (RANKL expression): inhibits RANKL expression
- mitogenic effect by BrdU incorporation [4]: confirmed
- concentration of peak effect on cell number [1]: 10^−11 M
- osteoblastic proliferation activity / potency [1]: highest potency
- cell number ([1]; at 10^−11 M concentration): more than doubling cell number
- osteoblastic proliferation activity / potency ([1]; listed as oleoyl serine): considerably more potent
- Erk phosphorylation (Erk1/2 phosphorylation [5]): reduced Erk phosphorylation, mainly p42

SMILES: CCCCCCCC/C=C\CCCCCCC(C)C(=O)N[C@@H](CO)C(=O)O (stereo partly drawn) [HU-681, 2-Methyl Oleoyl-L-Serine]
- concentration of peak effect on cell number [1]: 10^−13 M

SMILES: COc1cccc(-c2cc(=O)c3ccccc3o2)c1N [PD98059]
- blockade of oleoyl-serine (HU-639) mitogenic activity (osteoblasts): blocks the oleoyl-serine (HU-639) mitogenic activity dose-dependently

SMILES: CCCCC/C=C\C/C=C\C/C=C\C/C=C\CCCC(=O)NCCO [anandamide, arachidonoyl ethanolamide, reference compound]
- osteoblastic proliferation activity / potency [1]: some osteoblastic proliferation activity

SMILES: CCCCC/C=C\C/C=C\C/C=C\C/C=C\CCCC(=O)N[C@@H](CO)C(=O)O [arachidonoyl serine, N-arachidonoyl-serine, reference compound]
- osteoblastic proliferation activity / potency [1]: some osteoblastic proliferation activity

SMILES: CCCCCCCCCCCCCCCC(=O)NCCO [palmitoyl ethanolamide, reference compound]
- osteoblastic proliferation activity / potency [1]: some osteoblastic proliferation activity
